The test system of the experiment is BDF1 mice, B16 melanoma ip, median survival T/C. Description: NCI In Vivo Anticancer Drug Screen. Data for tumor model B16 Melanoma (intraperitoneal) in B6D2F1 (BDF1) mice. The conditions noted are these: endpoint: median survival time, higher = longer survival. Summed up: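 Survival or tumor size is measured after treatment of tumor-bearing mice and normalised to the vehicle-treated control group.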

Where [1] appears, read: dose: 25.0 mg/kg/injection, schedule: Q01DX009 (ip), vehicle: Klucel (hydroxypropylcellulose) (HPC).
Where [2] appears, read: dose: 50.0 mg/kg/injection, schedule: Q01DX009 (ip), vehicle: Klucel (hydroxypropylcellulose) (HPC).

Structures are written as SMILES. Values joined by “and” are separate entries in the source; they are usually repeats but may differ in a detail not shown here. Equal entries are not always repeated. Inconclusive results and toxic doses are left out. Peptide text beside a SMILES is read from it. * marks the point of attachment. Cbz = O=C(OCc1ccccc1)*

For `CCC(C)C(N)C(=O)NC(CC(N)=O)C(=O)NC(CC(C)C)C(=O)NC(CCCCN)C(=O)NC(C)C(=O)NC(CC(C)C)C(=O)NC(C)C(=O)NC(C)C(=O)NC(CC(C)C)C(=O)NC(C)C(=O)NC(CCCCN)C(=O)NC(CCCCN)C(=O)NC(C(=O)NC(CC(C)C)C(N)=O)C(C)CC` (stereo not given), the T/C by setting is: (dose: 1.0 mg/kg/injection, schedule: Q01DX009 (ip), vehicle: Klucel (hydroxypropylcellulose) (HPC)) 97 % of control; (dose: 2.0 mg/kg/injection, schedule: Q01DX009 (ip), vehicle: Klucel (hydroxypropylcellulose) (HPC)) 97 % of control; (dose: 4.0 mg/kg/injection, schedule: Q01DX009 (ip), vehicle: Klucel (hydroxypropylcellulose) (HPC)) 91 % of control.

Consider `COc1cc2c[n+](C)c3c4cc5c(cc4ccc3c2cc1OC)OCO5` (tested in a mixture with another compound), for which the T/C runs as follows: (dose: 0.78 mg/kg/injection, schedule: Q01DX009 (ip), vehicle: distilled water + Tween-80) 105 % of control; (dose: 1.56 mg/kg/injection, schedule: Q01DX009 (ip), vehicle: distilled water + Tween-80) 97 % of control; (dose: 3.13 mg/kg/injection, schedule: Q01DX009 (ip), vehicle: distilled water + Tween-80) 118 % of control; (dose: 5.0 mg/kg/injection, schedule: Q01DX009 (ip), vehicle: saline) 116 % of control; (dose: 6.25 mg/kg/injection, schedule: Q01DX009 (ip), vehicle: Klucel (hydroxypropylcellulose) (HPC)) 110 % of control; (dose: 12.5 mg/kg/injection, schedule: Q01DX009 (ip), vehicle: Klucel (hydroxypropylcellulose) (HPC)) 124 % of control. Further, the T/C by setting is: under setting [1], 114 % of control; (dose: 40.0 mg/kg/injection, schedule: Q01DX009 (ip), vehicle: saline) 159 % of control; under setting [2], 92 % of control; (dose: 80.0 mg/kg/injection, schedule: Q01DX009 (ip), vehicle: saline) 98 % of control.

Take `O=C(NC(Cc1ccccc1)C(=O)NC(CO)C(=O)O)OCc1ccccc1` (stereo not drawn) (Cbz-Phe-Ser-OH; configuration not given here): the T/C is 95 % of control (dose: 50.0 mg/kg/injection, schedule: Q01DX009 (ip), vehicle: saline with Tween-80) and 90 % of control (dose: 100.0 mg/kg/injection, schedule: Q01DX009 (ip), vehicle: saline with Tween-80).

For `COC(=O)C(N)Cc1ccc(O)c(O)c1` (stereo not given), the T/C was 122 % of control (dose: 25.0 mg/kg/injection, schedule: Q08HX018 (ip), vehicle: water); 111 % of control (dose: 50.0 mg/kg/injection, schedule: Q08HX018 (ip), vehicle: water); 99 % of control (dose: 50.0 mg/kg/injection, schedule: Q08HX030 (ip), vehicle: saline); 102 % of control (dose: 100.0 mg/kg/injection, schedule: Q01DX012 (ip), vehicle: saline); 102 % of control (dose: 100.0 mg/kg/injection, schedule: Q01DX014 (ip), vehicle: saline); 110 % of control (dose: 100.0 mg/kg/injection, schedule: Q08HX018 (ip), vehicle: water). In addition, the T/C runs as follows: (dose: 100.0 mg/kg/injection, schedule: Q08HX030 (ip), vehicle: saline) 104 % of control; (dose: 200.0 mg/kg/injection, schedule: Q01DX012 (ip), vehicle: saline) 104 % of control; (dose: 200.0 mg/kg/injection, schedule: Q01DX014 (ip), vehicle: saline) 104 % of control; (dose: 200.0 mg/kg/injection, schedule: Q08HX018 (ip), vehicle: water) 113 % of control; (dose: 200.0 mg/kg/injection, schedule: Q08HX030 (ip), vehicle: saline) 111 % of control; (dose: 400.0 mg/kg/injection, schedule: Q01DX012 (ip), vehicle: saline) 120 % of control. In addition, the T/C by setting is: (dose: 400.0 mg/kg/injection, schedule: Q01DX014 (ip), vehicle: saline) 118 % of control; (dose: 400.0 mg/kg/injection, schedule: Q08HX030 (ip), vehicle: saline) 107 % of control.

Turning to `O=C(O)C1CC(c2ccccc2)=NN1c1ccccc1` (stereo not given), the T/C runs as follows: (dose: 12.5 mg/kg/injection, schedule: Q01DX009 (ip), vehicle: water) 104 % of control; (dose: 25.0 mg/kg/injection, schedule: Q01DX009 (ip), vehicle: water) 99 % of control and 100 % of control; (dose: 50.0 mg/kg/injection, schedule: Q01DX009 (ip), vehicle: water) 99 % of control; (dose: 100.0 mg/kg/injection, schedule: Q01DX009 (ip), vehicle: water) 97 % of control and 110 % of control; (dose: 200.0 mg/kg/injection, schedule: Q01DX009 (ip), vehicle: water) 104 % of control and 110 % of control.

As for `C=CCN1/C(=C/C=C\c2sc3ccccc3[n+]2CC=C)Sc2ccccc21`, the T/C runs as follows: (dose: 0.06 mg/kg/injection, schedule: Q01DX009 (ip), vehicle: saline with Tween-80) 100 % of control; (dose: 0.13 mg/kg/injection, schedule: Q01DX009 (ip), vehicle: saline with Tween-80) 97 % of control; (dose: 0.25 mg/kg/injection, schedule: Q01DX009 (ip), vehicle: saline with Tween-80) 97 % of control; (dose: 0.5 mg/kg/injection, schedule: Q01DX009 (ip), vehicle: saline with Tween-80) 95 % of control.

As for `CC1OC(OC2CC(O)(C(=O)CO)Cc3c(O)c4c(c(O)c32)C(=O)c2ccccc2C4=O)CC(N)C1O` (stereo not given), the T/C reads like this: (dose: 0.1 mg/kg/injection, schedule: Q01DX001 (ip), vehicle: water) 102 % of control; (dose: 130.0 micrograms/kg/injection, schedule: Q01DX004 (ip), vehicle: other) 121 % of control; (dose: 216.0 micrograms/kg/injection, schedule: Q04DX003 (ip), vehicle: water) 182 % of control; (dose: 600.0 micrograms/kg/injection, schedule: Q01DX004 (ip), vehicle: other) 114 % of control; (dose: 600.0 micrograms/kg/injection, schedule: Q04DX003 (ip), vehicle: water) 150 % of control and 283 % of control; (dose: 1000.0 micrograms/kg/injection, schedule: Q04DX003 (ip), vehicle: water) 154 % of control and 211 % of control.

Turning to `CC[C@@]1(O)C[C@H](OC2CC(N(C)C)C(O)C(C)O2)c2c(O)c3c(c(O)c2[C@H]1OC1CC(N(C)C)C(O)C(C)O1)C(=O)c1cccc(O)c1C3=O` (stereo not given in full), the T/C (dose: 31.2 micrograms/kg/injection, schedule: Q01DX009 (ip), vehicle: Klucel (hydroxypropylcellulose) (HPC)) was 100 % of control and the T/C (dose: 62.5 micrograms/kg/injection, schedule: Q01DX009 (ip), vehicle: Klucel (hydroxypropylcellulose) (HPC)) was 89 % of control.

Turning to `COc1ccc2c(c1)C(OC)C1c3c(cc4c(c3-2)OCO4)CCN1C` (stereo not given), the T/C is 123 % of control (dose: 1.0 mg/kg/injection, schedule: Q01DX009 (ip), vehicle: acid diluted with saline) and 89 % of control (dose: 2.0 mg/kg/injection, schedule: Q01DX009 (ip), vehicle: acid diluted with saline).

As for `C/C=C\C1OC1(C)c1cc(=O)c2c(C)cc3c(c2o1)C(=O)c1c(O)c(C2CC(C)(N(C)C)C(OC(C)=O)C(C)O2)cc(C2CC(N(C)C)C(O)C(C)O2)c1C3=O` (stereo not given), the T/C (dose: 0.1 mg/kg/injection, schedule: Q01DX009 (ip), vehicle: saline) was 100 % of control; the T/C (dose: 0.2 mg/kg/injection, schedule: Q01DX009 (ip), vehicle: saline) was 100 % of control; the T/C (dose: 0.35 mg/kg/injection, schedule: Q01DX009 (ip), vehicle: saline with Tween-80) is 88 % of control; the T/C (dose: 0.4 mg/kg/injection, schedule: Q01DX009 (ip), vehicle: saline) was 100 % of control; the T/C (dose: 0.7 mg/kg/injection, schedule: Q01DX009 (ip), vehicle: saline with Tween-80) is 95 % of control; the T/C (dose: 0.8 mg/kg/injection, schedule: Q01DX009 (ip), vehicle: saline) was 106 % of control.

`COc1cc(OC)c(/C=C/c2cc[n+](C)c3ccccc23)c(OC)c1`: the T/C was 105 % of control (dose: 0.75 mg/kg/injection, schedule: Q01DX009 (ip), vehicle: saline); 95 % of control (dose: 1.5 mg/kg/injection, schedule: Q01DX009 (ip), vehicle: saline); 97 % of control (dose: 3.0 mg/kg/injection, schedule: Q01DX009 (ip), vehicle: saline).

Regarding `CNC(=O)Nc1ccc(C(=O)NC(C)C)cc1`, the T/C by setting is: under setting [1], 98 % of control; under setting [2], 97 % of control; (dose: 100.0 mg/kg/injection, schedule: Q01DX009 (ip), vehicle: Klucel (hydroxypropylcellulose) (HPC)) 96 % of control; (dose: 200.0 mg/kg/injection, schedule: Q01DX009 (ip), vehicle: Klucel (hydroxypropylcellulose) (HPC)) 100 % of control; (dose: 400.0 mg/kg/injection, schedule: Q01DX009 (ip), vehicle: Klucel (hydroxypropylcellulose) (HPC)) 88 % of control.

In the case of `CCC(C)Sc1nc(N)nc2c1ncn2C1OC(CO)C(O)C1O` (stereo not given), the T/C is 113 % of control (dose: 37.5 mg/kg/injection, schedule: Q01DX009 (ip), vehicle: Klucel (hydroxypropylcellulose) (HPC)); 99 % of control (dose: 75.0 mg/kg/injection, schedule: Q01DX009 (ip), vehicle: Klucel (hydroxypropylcellulose) (HPC)); 89 % of control (dose: 150.0 mg/kg/injection, schedule: Q01DX009 (ip), vehicle: Klucel (hydroxypropylcellulose) (HPC)).

Values taken from PubChem BioAssay AID192 (DTP/NCI, 2004).
